From ChEMBL document CHEMBL1201862, “PubChem BioAssay data set” (2004) come the findings set out here.

For series [1], the target named is Cytochrome P450 3A4 (Homo sapiens, UniProt P08684).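 Also: CYP3A4 tested as one member of a cytochrome P450 panel screen.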
Series [2] concerns the target T1, Cytochrome P450 1A2 (Homo sapiens, UniProt P05177).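 Also: PubChem cytochrome P450 panel assay, CYP1A2 panel member.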
T1 sequence (P05177 whole entry): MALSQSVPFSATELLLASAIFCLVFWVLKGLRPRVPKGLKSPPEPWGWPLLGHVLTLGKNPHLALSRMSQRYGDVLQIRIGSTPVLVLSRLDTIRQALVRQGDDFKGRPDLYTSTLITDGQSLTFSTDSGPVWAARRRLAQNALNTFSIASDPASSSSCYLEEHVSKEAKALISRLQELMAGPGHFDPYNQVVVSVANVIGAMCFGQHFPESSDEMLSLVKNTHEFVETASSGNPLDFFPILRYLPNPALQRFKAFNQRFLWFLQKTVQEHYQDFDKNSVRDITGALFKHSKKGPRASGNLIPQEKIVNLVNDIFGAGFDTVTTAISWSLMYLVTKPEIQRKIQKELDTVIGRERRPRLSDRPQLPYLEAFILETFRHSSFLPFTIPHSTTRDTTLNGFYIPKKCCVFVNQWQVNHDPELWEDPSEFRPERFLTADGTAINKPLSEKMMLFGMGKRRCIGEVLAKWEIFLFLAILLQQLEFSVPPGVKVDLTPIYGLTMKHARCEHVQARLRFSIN

For series [3], the target named is T2, Streptokinase A (Streptococcus pyogenes serotype M1, UniProt P10520).
T2 sequence (P10520 whole entry): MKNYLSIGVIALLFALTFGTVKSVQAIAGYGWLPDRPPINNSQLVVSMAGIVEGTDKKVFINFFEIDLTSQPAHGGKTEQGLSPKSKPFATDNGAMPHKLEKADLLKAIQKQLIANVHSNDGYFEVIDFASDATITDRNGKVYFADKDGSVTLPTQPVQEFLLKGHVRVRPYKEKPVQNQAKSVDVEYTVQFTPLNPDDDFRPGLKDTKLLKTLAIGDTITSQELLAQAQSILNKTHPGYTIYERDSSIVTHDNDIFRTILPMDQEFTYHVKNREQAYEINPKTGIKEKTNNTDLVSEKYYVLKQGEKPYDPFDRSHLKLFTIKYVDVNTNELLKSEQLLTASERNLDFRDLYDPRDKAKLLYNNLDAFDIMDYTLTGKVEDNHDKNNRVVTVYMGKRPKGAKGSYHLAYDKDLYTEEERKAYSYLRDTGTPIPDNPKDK
The experiment in a line: viability-normalized secreted streptokinase activity reduction – plasminogen activation absorbance, OD405, dose response (AID 1914).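 Also: secreted streptokinase activity via plasminogen activation per viability signal from cell pellet.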 Format: functional, Streptococcus pyogenes M1 GAS.

For series [4], the system named is Streptococcus sp. 'group A'. Nature of the series: Streptococcus pyogenes SK(-)GAS viability under kanamycin – luminescence, BacTiterGlo, confirmation, counter-screen for streptokinase expression inhibitor project, dose response (AID 1900). It is filed as functional, organism-based.
Series [5] relates to Streptococcus. The experiment in a line: GAS UMAA2166 growth inhibition – luminescence, BacTiterGlo, counter-screen for streptokinase expression inhibitor project, dose response (AID 1915).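 Also: potency for reduction of bacterial viability or growth.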 Format: functional, organism-based.
In series [6] the target is FAD-linked sulfhydryl oxidase ALR (Homo sapiens, UniProt P55789). The experiment in a line: ALR-catalysed DTT oxidation blockers – biochemical, H2O2 detection, luminescence, cherry-pick, dose response (AID 493248).
Sequence of FAD-linked sulfhydryl oxidase ALR (P55789 whole entry): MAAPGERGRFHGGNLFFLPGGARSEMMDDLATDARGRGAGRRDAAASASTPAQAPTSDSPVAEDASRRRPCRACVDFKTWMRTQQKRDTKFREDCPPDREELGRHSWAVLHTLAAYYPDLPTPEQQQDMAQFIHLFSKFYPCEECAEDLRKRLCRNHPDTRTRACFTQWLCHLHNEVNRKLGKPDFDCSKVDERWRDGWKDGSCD
For series [7], the target named is Cytochrome P450 2C19 (Homo sapiens, UniProt P33261). Nature of the series: Cytochrome panel assay with activity outcomes. Panel member name: p450-cyp2c19 Compounds with AC50 equal or less than 10 uM are considered active. It is filed as functional.
Sequence of Cytochrome P450 2C19 (P33261 whole entry): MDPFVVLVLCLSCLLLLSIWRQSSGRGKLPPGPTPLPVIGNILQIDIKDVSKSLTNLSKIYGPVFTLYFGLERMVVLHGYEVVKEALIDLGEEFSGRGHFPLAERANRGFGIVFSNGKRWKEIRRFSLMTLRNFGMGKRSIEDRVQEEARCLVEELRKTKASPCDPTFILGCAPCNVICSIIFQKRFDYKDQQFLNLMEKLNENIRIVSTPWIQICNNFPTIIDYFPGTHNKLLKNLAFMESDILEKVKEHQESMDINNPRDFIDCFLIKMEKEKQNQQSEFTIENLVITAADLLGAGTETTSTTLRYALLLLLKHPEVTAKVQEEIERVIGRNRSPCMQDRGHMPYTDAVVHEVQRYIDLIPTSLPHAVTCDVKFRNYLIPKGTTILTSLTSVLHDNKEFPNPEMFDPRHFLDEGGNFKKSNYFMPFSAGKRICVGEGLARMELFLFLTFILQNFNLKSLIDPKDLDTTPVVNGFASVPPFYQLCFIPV
Series [8] deals with Cytochrome P450 2D6 (Homo sapiens, UniProt P10635).
Sequence of Cytochrome P450 2D6 (P10635 whole entry): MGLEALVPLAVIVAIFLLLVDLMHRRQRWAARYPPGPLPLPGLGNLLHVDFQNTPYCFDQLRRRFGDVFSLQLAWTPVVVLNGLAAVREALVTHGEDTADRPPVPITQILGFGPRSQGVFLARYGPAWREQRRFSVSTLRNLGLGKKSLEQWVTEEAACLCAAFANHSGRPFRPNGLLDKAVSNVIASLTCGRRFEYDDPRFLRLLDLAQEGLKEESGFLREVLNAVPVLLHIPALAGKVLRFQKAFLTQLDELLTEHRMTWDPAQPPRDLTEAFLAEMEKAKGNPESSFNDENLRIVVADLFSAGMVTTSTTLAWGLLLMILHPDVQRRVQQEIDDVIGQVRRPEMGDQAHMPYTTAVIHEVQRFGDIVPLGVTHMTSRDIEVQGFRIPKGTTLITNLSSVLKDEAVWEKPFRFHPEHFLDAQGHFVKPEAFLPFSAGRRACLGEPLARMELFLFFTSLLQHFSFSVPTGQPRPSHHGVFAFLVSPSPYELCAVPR
The target in series [9] is T3, Corticotropin-releasing factor receptor 2/Corticotropin-releasing factor-binding protein (Homo sapiens, UniProt P24387+Q13324).
T3 sequence (Q13324 whole entry): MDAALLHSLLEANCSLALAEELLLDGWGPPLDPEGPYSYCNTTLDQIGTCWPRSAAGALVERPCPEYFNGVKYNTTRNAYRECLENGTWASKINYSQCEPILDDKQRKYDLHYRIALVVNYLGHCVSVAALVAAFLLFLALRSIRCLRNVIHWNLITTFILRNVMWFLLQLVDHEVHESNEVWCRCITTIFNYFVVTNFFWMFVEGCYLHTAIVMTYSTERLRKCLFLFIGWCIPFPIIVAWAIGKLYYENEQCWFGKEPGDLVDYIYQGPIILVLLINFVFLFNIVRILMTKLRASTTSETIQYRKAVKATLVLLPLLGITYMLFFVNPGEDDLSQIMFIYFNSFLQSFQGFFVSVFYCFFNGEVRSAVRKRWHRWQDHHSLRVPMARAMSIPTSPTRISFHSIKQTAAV
T3 sequence (P24387 whole entry): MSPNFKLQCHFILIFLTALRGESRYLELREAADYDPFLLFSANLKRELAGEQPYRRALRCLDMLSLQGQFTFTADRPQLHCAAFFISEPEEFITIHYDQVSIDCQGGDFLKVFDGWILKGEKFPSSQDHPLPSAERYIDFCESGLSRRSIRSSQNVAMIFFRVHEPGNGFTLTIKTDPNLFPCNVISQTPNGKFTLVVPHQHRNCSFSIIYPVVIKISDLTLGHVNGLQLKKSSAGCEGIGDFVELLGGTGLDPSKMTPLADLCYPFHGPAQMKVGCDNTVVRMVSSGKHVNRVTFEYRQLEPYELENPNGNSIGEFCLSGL
The experiment in a line: activators of CRF receptor 2 with binding protein – uHTS hits, confirmation (AID 602473). The following applies: read-out: EC50_Mean. It is filed as functional.

For series [10], the target named is Paired box protein Pax-8 (Homo sapiens, UniProt Q06710). The experiment in a line: PAX8 transcriptional activity inhibition in RMG-I – RMG-I cells, luciferase, cherry-pick, dose response (AID 687027).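 Also: luciferase reporter driven by Pax8 target thyroperoxidase promoter measured by SteadyGlo luminescence.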 It is filed as functional, cell-based.
Sequence of Paired box protein Pax-8 (Q06710 whole entry): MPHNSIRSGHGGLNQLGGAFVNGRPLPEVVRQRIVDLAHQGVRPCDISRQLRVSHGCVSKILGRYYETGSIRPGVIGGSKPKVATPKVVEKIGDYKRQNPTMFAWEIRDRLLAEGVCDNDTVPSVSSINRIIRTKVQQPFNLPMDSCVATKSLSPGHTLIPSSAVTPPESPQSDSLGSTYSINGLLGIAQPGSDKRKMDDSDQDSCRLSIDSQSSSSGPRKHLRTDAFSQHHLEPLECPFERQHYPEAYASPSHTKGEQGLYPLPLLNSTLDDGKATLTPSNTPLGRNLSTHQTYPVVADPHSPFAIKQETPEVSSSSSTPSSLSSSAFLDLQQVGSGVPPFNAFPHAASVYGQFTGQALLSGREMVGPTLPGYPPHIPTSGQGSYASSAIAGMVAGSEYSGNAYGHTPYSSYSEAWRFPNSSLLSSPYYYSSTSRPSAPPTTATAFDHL

Activity calls are given as the source filed them.

Sequence of Cytochrome P450 3A4 (P08684 whole entry): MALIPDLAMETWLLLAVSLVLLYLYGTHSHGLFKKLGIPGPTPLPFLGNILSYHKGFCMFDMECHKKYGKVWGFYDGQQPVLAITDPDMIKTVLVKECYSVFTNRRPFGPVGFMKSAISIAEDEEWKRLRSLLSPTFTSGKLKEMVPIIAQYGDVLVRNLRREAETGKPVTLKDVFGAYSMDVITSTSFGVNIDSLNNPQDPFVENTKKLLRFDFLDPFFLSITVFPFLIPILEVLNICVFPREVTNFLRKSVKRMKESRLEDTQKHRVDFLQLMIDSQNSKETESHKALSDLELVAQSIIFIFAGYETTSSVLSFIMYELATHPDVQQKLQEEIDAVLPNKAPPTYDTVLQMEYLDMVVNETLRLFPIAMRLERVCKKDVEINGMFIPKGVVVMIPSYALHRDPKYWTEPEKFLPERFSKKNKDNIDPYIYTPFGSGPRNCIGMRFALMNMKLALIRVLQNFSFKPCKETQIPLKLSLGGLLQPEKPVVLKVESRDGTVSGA

In general, AC50 refers to the concentration giving half of the maximal activity seen. Consider `N#Cc1c(SCC(N)=O)nsc1SCc1ccccc1Cl`, for which the AC50 in series [1] was 10 µM (inconclusive); in series [2] it was 4.47 µM (inconclusive).

Turning to `COC(=O)[C@@]1(Cc2ccccc2)[C@H]2c3cc(C(=O)N4CCCC4)n(Cc4cccc5ccccc45)c3C[C@H]2CN1C(=O)c1ccccc1`, in series [2], the half-maximal activity concentration (AC50) is 15.8 µM (inconclusive).

In the case of `CC(C)CN(C(=O)COc1ccc(-c2nnco2)cc1)C1CCS(=O)(=O)C1` (configuration not stated), the EC50 in series [3], in [4] and in [5] was > 150 µM (not active) in each case.

As to `Cc1ccc(C2(c3ccc(C)c(O)c3C)CCN(C)CC2)c(C)c1O`, the concentration at half-maximal activity (AC50) in series [2] was 5.01 µM (inconclusive).

Take `CN(C)c1ccc(/C=N/NC(=O)c2ccc3c(c2)OCO3)cc1`: the AC50 in series [6] is 4.72 µM (active).

On to `CCCCC(NC(=O)CCc1c(C)c2cc3c4c(oc3c(C)c2oc1=O)CCCC4)C(=O)O` (configuration not stated), for which the AC50 in series [6] is 7.78 µM (active).

Take `Cc1cccc(-n2c(-c3ccoc3C)n[nH]c2=S)c1`: the concentration at half-maximal activity (AC50) in series [6] was 7.34 µM (active).

Turning to `Cc1ccccc1NC(=O)C(=O)NC(C)CCc1ccccc1` (configuration not stated), the EC50 in [3], in series [4] and in series [5] was > 150 µM (not active) in each case.

Regarding `COc1ccc(CC(=O)N/N=C(\C)CC(=O)Nc2ccc(N(C)C)cc2)cc1`, the AC50 in series [6] is 2.04 µM (active).

`CCN(CC)C(=O)C1=C(C)N=C(S)NC1c1cn(-c2ccccc2)nc1-c1ccc(Cl)cc1` (configuration not stated): the AC50 in series [7] (read-out: AC50) is 17.8 µM (inconclusive); in series [2] it was 28.2 µM (inconclusive).

`CC/C(=N\NC(=S)Nc1cc(C)ccc1C)c1ccc(OC(F)F)cc1`: the results for the EC50 in series [3], in series [4] and in series [5] were > 150 µM (not active), 6.27 µM (active) and 11.8 µM (active), respectively.

For `CN1c2ccc([N+](=O)[O-])cc2C(C)(C)C12C=Cc1cc(C(=O)O)ccc1O2` (configuration not stated), the AC50 in series [6] was 1.47 µM (active).

As to `CC1(C)[C@@H]2CC[C@]1(C)[C@@H](OC(=O)/C=C\c1ccccc1)C2`, the AC50 in [7] (read-out: AC50) was 0.00398 µM (inconclusive).

Turning to `Cc1cccc(C)c1OCC(=O)Nc1ccccc1N1CCCCC1`, the results for the EC50 in [3], in [4] and in series [5] were 4.15 µM (active), 3.36 µM (active) and 12.5 µM (active), respectively.

As to `Cc1ccccc1N=Nc1c(N)n[nH]c1N`, the AC50 in [6] is 5.72 µM (active).

Turning to `CN1CCN(c2ncc3nc(CCc4ccccc4)c(=O)n(Cc4cccs4)c3n2)CC1`, the values for the AC50 in [7] (read-out: AC50), in series [1] and in series [8] were 39.8 µM (inconclusive), 12.6 µM (inconclusive) and 20 µM (inconclusive), respectively.

As to `CCCCNC(=O)CCn1c(=S)[nH]c2cc3c(cc2c1=O)OCO3`, the AC50 in series [7] (read-out: AC50) was 3.55 µM (inconclusive).

For the compound `Cc1cccc(OCc2nnc(S)n2-c2ccccc2)c1`, the AC50 in series [6] is 1.6 µM (active).

With `CN1CCC(n2[nH]c(-c3ccccc3)c(Cc3ccccc3)c2=O)CC1` [BENZPIPERYLON], the results for the AC50 in series [8] and in series [2] were 3.16 µM (inconclusive) and 1.58 µM (inconclusive), respectively.

Consider `CCC(CC)C(=O)Nc1c2c(nn1-c1ccc(OC)cc1)CS(=O)(=O)C2`, for which the AC50 in series [7] (read-out: AC50) is 35.5 µM (inconclusive); in series [1], 25.1 µM (inconclusive).

As for `Cn1c(CN2CCOCC2)nnc1SCc1ccccc1`, in series [7] (read-out: AC50), the concentration at half-maximal activity (AC50) is 20 µM (inconclusive).

As for `Cc1ccc2nc(Nc3ccccc3O)nc(-c3ccccc3)c2c1`, the results for the AC50 in series [7] (read-out: AC50), in series [1] and in series [8] were 2.24 µM (inconclusive), 35.5 µM (inconclusive) and 3.55 µM (inconclusive), respectively.

In the case of `C[C@@H](C(=O)O)c1ccc(C[C@@H]2CCCC2=O)cc1`, in [7], the AC50 result was “inconclusive”.

With `CCOC(=O)C1=C(N)Oc2ccc3ccccc3c2C1c1ccc(O)cc1` (configuration not stated), the EC50 in series [3] was 11.5 µM (active); in [4] it was 8.94 µM (active); in series [5], > 150 µM (not active).

`N#Cc1ccc(CC(=O)c2ccccc2)[nH]c1=O`: in [9], the EC50 was 12.2 µM (active).

`C=CC[C@@H](C(=O)O)c1ccccc1`: the AC50 result in series [7] was “inconclusive”.

For the compound `O=C(Nc1ccccc1)N1CCCC2(CCN(S(=O)(=O)c3ccccc3)CC2)C1`, the AC50 in series [1] was 5.01 µM (inconclusive); in [8] it was 15.8 µM (inconclusive); in series [2], 15.8 µM (inconclusive).

As to `O=C(Nc1cccc(F)c1)N1CC[C@@]2(CCCN(C(=O)c3ccco3)C2)C1`, the AC50 in [1] was 10 µM (inconclusive); in series [2], 25.1 µM (inconclusive).

For the compound `CN1CCN(c2ncc3nc(-c4cccs4)c(=O)n(CCC#N)c3n2)CC1`, the values for the AC50 in [1] and in [2] were 31.6 µM (inconclusive) and 15.8 µM (inconclusive), respectively.

Take `Cc1nnc(O)c2c(NC(=O)CSc3nnnn3-c3ccccc3)oc(C)c12`: the EC50 in [3], in [4] and in [5] was > 150 µM (not active) throughout.

As for `NS(=O)(=O)c1cc2c(cc1Cl)N[C@H](Cc1ccccc1)NS2(=O)=O`, the AC50 in series [2] was 3.16 µM (inconclusive).

In the case of `c1cncc(CNc2ncn[nH]2)c1`, the AC50 entry in series [7] is reported as “inconclusive”.

Take `Cn1cc(-c2nc3cnc(Oc4cccc(Cl)c4)nc3n(C3CC3)c2=O)c2ccccc21`: the AC50 in [2] was 12.6 µM (inconclusive).

`CC(C)[C@@H]1[C@H]2CC[C@H](C2)[C@H]1N`: the AC50 in [1] was 15.8 µM (inconclusive); in series [2], 31.6 µM (inconclusive).

As for `Oc1cccc2ccc(/C=C/c3c(F)cccc3Cl)nc12`, the EC50 in series [3] is > 150 µM (not active); in [4] it was 0.589 µM (active); in series [5] it was 32.2 µM (active).

For the compound `C[C@@H]1CN([C@H](C)CO)C(=O)c2cc(NS(=O)(=O)c3ccc(Cl)cc3)ccc2O[C@@H](C)CCCCO[C@H]1CN(C)C(=O)C1CCCCC1`, the AC50 in series [10] was 15.8 µM (active).

Turning to `CCOC(=O)c1cnn(-c2nc(-c3cccc(F)c3)cs2)c1C(F)(F)F`, the values for the EC50 in series [3], in series [4] and in series [5] were 20.8 µM (active), 9.99 µM (active) and 17.6 µM (active), respectively.

Regarding `CCOc1cc(NC(=O)c2ccccc2[N+](=O)[O-])c(OCC)cc1NC(=O)CC(C)C`, the AC50 in series [7] (read-out: AC50) was 0.0112 µM (inconclusive).

As for `Cc1nn(CC(O)CN2c3ccccc3Sc3ccccc32)c(C)c1Br` (configuration not stated), the figures for the EC50 in [3], in series [4] and in series [5] were 8 µM (active), 3.47 µM (active) and 21.4 µM (active), respectively.

In the case of `COC(=O)c1ccccc1Oc1c(F)c(F)nc(N2CCOCC2)c1F`, the AC50 was 35.5 µM (inconclusive) in [8] and 28.2 µM (inconclusive) in [2].
